Measured values as given in patent US10028992B2, “Methods of treating muscular dystrophy” (BOARD OF REGENTS OF THE NEVADA SYSTEM OF HIGHER EDUCATION …, priority 2012, dated 2018).
Values joined by “and” are separate entries in the source; they are usually repeats but may differ in a detail not shown here. Equal entries are not always repeated. Where two headings read alike, the source gives them in different places.

Test system: α7 integrin promoter
Experiment: muscle cell-based assay: α7βgal+/− myoblasts/myotubes, LacZ reporter, β-galactosidase cleavage of FDG
Design: species or system mouse
Conditions: for AC50 / Fit HillSlope / Fit Zero Activity [%] / Fit Curve Class: Table 12; for AC50: log of AC50, given with negative sign, unit of AC50 not given, read-out: Fit Log AC50 (converted); for Emax: read-out: Max Response [%]; for Fit HillSlope: curve fit; for Fit Zero Activity [%]: fitted activity at zero concentration; for Fit Curve Class: key not given; for Score: Table 12 Compound data, concentration-response curve fit
Protocol: An α7 integrin null mouse was produced in which exon 1 of the gene encoding the α7 integrin was replaced by the LacZ reporter. In these mice, all the transcriptional regulatory elements of the α7 integrin promoter were retained, allowing β-galactosidase to report expression of 7 integrin. A primary myoblast cell line (designated α7βgal^+/−) isolated from 10 day old α7^+/− pups were analyzed for the ability of β-galactosidase to report α7 integrin expression. α7βgal^+/− myoblasts were differentiated and subjected to X-gal staining and western analysis (FIGS. 1A and 1B).
The activity of the α7 integrin promoter was measured by β-galactosidase cleavage of the non-fluorescent compound fluorescein di-β-D-galactopyranoside (FDG) to fluorescein. This assay was used to screen compound libraries to identify molecules that up-regulate α7 integrin expression in muscle.
Also evaluated was the effect of various isoforms of laminin and the ligand for α7β1 integrin on integrin expression. Positive hits were subjected to dose-response analysis, western analysis and a myostatin counterscreen (a negative regulator of muscle growth).

SMILES | Results in a α7+/− β-galactosidase assay, Myotubes, 0.5 uM | Results in a α7+/− β-galactosidase assay, Myotubes, 1 uM | Results in a α7+/− β-galactosidase assay, Myotubes, 5 uM | Results in a α7+/− β-galactosidase assay, Myotubes, 10 uM | Results in a α7+/− β-galactosidase assay, Myotubes, 20 uM | Results in a α7+/− β-galactosidase assay, Myotubes, 40 uM | AC50 (Mus musculus) [nM] | Emax (Mus musculus) [%] | Fit HillSlope | Fit Zero Activity [%] | Fit Curve Class | Score | other results
O=C(COc1ccc(Cl)cc1)N1CCN(C2CCCC2)CC1.O=C(O)C(=O)O | 0.1096 | 0.06035 | −0.07324 | −0.04013 | −0.1813 | −0.2711 |  |  |  |  |  |  | 
O=C(Nc1ccccc1Cl)C1CCCN1C(=O)OCc1ccccc1 (stereo not drawn) | −0.04746 | −0.07012 | −0.00214 | −0.05774 | −0.1932 | −0.2694 |  |  |  |  |  |  | 
C#CC1(O)CCC2C3CCC4=C/C(=N/OCC(=O)NCC(=O)NC(C(=O)O)C(C)C)CC[C@]4(C)C3CC[C@@]21C (stereo partly drawn) | 0.1086 | 0.2546 | 0.3822 | 0.2484 | 0.1342 | 0.073 |  |  |  |  |  |  | 
O=C1Nc2ccccc2/C1=C/c1c[nH]cn1 | −0.09659 | 0.04801 | 0.2975 | 0.1108 | 0.1916 | 0.1189 |  |  |  |  |  |  | 
Cc1ccc(NS(=O)(=O)c2cccc(C(=O)O)c2)cc1S(=O)(=O)N1CCOCC1 |  |  |  |  |  |  |  |  |  |  |  |  | Results in a α7+/− β-galactosidase assay, Myotubes, 5 uM (Myotubes, compound at 5 uM): 0.6308 and 0.5052
COc1cc([N+](=O)[O-])cc(/C=N/NC(=O)C(O)(c2ccccc2)c2ccccc2)c1O | 0.1119 | −0.01127 | −0.4224 | −0.4434 | −0.2622 | −0.3132 |  |  |  |  |  |  | 
Cc1cc(C2CCCCC2)n(O)c(=O)c1 [Ciclopirox ethanolamine, ciclopirox ethanolamine, reference compound] |  |  |  |  |  |  |  |  |  |  |  |  | EC50 (Mus musculus, enhancement of α7 integrin expression in muscle cells, read-out: EC50): 0.6 µg/mL; Optimal Concentration (enhancement of α7 integrin expression in muscle cells): 4 µg/mL
CC(OC(=O)c1cc(-c2cccnc2)nc2ccccc12)C(=O)Nc1ccc2ccccc2c1 (stereo not drawn) [Compound 1] |  |  |  |  |  |  | 1120 | 191 | 3.132 | −2.9752 | 1.1 | 94 | Activity at 0.307 μM [%] ** (0.307 μM): 0%
Cc1cccc(OCc2nc(C#N)c(N3CCCC3)o2)c1 [Compound 2] |  |  |  |  |  |  | 3550 | 223 | 1.4163 | 3.1995 | 1.1 | 91 | Activity at 7.660 μM [%] ** (7.660 μM): 175.022%
COc1ccccc1-c1coc2c3c(ccc2c1=O)OC1CCCCN1C3 (stereo not drawn) [Compound 3] |  |  |  |  |  |  | 2240 | 159 | 3.0654 | −35.3084 | 1.1 | 89 | 
Cc1ccccc1C(=O)Nc1scc(-c2ccc(Br)cc2)c1C(=O)O [Compound 4] |  |  |  |  |  |  | 2820 | 137 | 1.8617 | 7.6069 | 1.1 | 87 | 
COc1cc2c(cc1NC(=O)Cc1ccc(C)cc1)oc1ccccc12 [Compound 5] |  |  |  |  |  |  | 1120 | 87.1 | 2.5334 | −5.0637 | 1.1 | 86 | Activity at 38.30 μM [%] ** (38.30 μM): 87.1241%
COCc1c(C(=O)OCc2nc(=O)c3sccc3[nH]2)oc2ccccc12 [Compound 6] |  |  |  |  |  |  | 1120 | 68.1 | 1.3437 | −58.5311 | 1.1 | 85 | 
O=C(NC1CCCC1)c1ccc(CS(=O)(=O)Cc2ccccc2F)o1 [Compound 7] |  |  |  |  |  |  | 4470 | 105 | 1.6924 | 12.5 | 1.1 | 85 | 
CN(C)S(=O)(=O)c1cccc(C(=O)Nc2ccc3c(c2)CCC3)c1 [Compound 8] |  |  |  |  |  |  | 2820 | 94.3 | 4.9549 | −15.6523 | 1.1 | 85 | 
